From patent US9637453B2, “3-spirocyclic-6-hydroxamic acid tetralins as HDAC inhibitors” (Forma Therapeutics, Inc., priority 2015, dated 2017)

Columns and labels:
[1] = biological target: T1, Full length human recombinant HDAC11 (Homo sapiens, UniProt Q96DB2); experiment: In vitro histone deacetylase assay, enzymatic HDAC11 (electrophoretic mobility shift assay); format: biochemical; conditions: 10 nM HDAC11; 2 μM peptide substrate FAM-RHKK(tri-fluor-Ac)—NH2; 25° C.; 12 concentrations; read-out: HDAC11 Activity Range (IC50)
T1 construct: Full length human recombinant HDAC6 and HDAC11 proteins were expressed in baculoviral system
T1 sequence (Q96DB2 1-347): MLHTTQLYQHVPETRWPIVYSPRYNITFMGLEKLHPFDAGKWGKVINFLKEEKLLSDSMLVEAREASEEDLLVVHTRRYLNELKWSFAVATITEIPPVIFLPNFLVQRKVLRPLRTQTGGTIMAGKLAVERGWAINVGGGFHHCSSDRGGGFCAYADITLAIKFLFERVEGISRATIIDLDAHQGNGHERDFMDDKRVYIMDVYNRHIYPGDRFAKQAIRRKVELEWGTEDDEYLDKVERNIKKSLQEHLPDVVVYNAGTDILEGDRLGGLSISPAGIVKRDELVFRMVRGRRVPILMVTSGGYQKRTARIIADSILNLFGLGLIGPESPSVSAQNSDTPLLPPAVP
How it was run: (§1)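 Baculovirus-expressed full-length enzymes (HDAC6 1 nM, FAM-RHKK(Ac)-NH2; HDAC11 10 nM, FAM-RHKK(tri-fluor-Ac)-NH2), 2 μM substrate, HEPES pH 7.5, 25°C, 12-point 3× dilutions. Product/substrate separated by microfluidic mobility shift after SDS quench; IC50 from 4-parameter fit, reported as +/++/+++ bins.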

[2] = biological target: T2, Full length human recombinant HDAC6 (Homo sapiens, UniProt Q9UBN7); experiment: In vitro histone deacetylase assay, enzymatic HDAC6 (electrophoretic mobility shift assay); format: biochemical; conditions: 1 nM HDAC6; 2 μM peptide substrate FAM-RHKK(Ac)—NH2; 25° C.; 12 concentrations; read-out: HDAC6 Activity Range (IC50)
T2 construct: Full length human recombinant HDAC6 and HDAC11 proteins were expressed in baculoviral system
T2 sequence (Q9UBN7 1-1215): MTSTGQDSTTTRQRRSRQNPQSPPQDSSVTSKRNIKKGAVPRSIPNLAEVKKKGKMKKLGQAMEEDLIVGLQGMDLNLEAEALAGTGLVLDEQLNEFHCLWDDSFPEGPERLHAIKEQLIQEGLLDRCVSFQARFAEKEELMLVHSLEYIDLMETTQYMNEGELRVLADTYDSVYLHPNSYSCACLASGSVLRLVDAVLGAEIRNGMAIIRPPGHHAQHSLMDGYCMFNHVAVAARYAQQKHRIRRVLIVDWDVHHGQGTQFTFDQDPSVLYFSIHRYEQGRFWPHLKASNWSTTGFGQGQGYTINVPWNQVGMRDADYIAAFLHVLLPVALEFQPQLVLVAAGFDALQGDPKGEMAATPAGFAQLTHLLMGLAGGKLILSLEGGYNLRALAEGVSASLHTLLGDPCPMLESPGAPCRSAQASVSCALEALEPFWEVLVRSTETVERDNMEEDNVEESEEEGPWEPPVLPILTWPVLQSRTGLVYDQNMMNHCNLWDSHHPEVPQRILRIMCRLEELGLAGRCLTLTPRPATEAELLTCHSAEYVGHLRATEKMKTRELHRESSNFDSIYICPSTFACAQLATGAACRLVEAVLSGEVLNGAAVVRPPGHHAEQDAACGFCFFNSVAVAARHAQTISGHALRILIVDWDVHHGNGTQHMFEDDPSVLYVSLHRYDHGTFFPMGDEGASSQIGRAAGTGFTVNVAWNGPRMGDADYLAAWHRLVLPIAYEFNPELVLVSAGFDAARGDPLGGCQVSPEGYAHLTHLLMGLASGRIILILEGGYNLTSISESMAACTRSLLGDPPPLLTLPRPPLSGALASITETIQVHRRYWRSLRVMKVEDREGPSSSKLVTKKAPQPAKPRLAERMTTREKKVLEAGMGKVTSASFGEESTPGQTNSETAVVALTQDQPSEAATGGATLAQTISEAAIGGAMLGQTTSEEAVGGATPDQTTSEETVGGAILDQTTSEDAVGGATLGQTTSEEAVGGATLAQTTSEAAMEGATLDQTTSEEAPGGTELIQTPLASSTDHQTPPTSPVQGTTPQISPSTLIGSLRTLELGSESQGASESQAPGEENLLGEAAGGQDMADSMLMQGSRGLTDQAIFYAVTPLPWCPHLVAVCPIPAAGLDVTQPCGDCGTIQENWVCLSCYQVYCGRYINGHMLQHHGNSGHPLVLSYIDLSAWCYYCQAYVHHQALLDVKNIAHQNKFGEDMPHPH
How it was run: as §1

| SMILES | IC50 [1] [nM] | IC50 [2] [nM] |
| --- | --- | --- |
| O=C(NO)c1ccc2c(c1)C[C@@]1(CC2)CCN(Cc2ccccc2OC(F)F)C1=O [Compound I-78, (S)-1′-(2-(difluoromethoxy)benzyl)-N-hydroxy-2′-oxo-3,4-dihydro-1H-spiro[naphthalene-2,3′-pyrrolidine]-7-carboxamide] | > 500 | ≤ 100 |
| CCCN1CC[C@]2(CCc3ccc(C(=O)NO)cc3C2)C1=O [Compound I-79, (R)—N-hydroxy-2′-oxo-1′-propyl-3,4-dihydro-1H-spiro[naphthalene-2,3′-pyrrolidine]-7-carboxamide] | > 500 | ≤ 100 |
| O=C(NO)c1ccc2c(c1)C[C@]1(CC2)CCN(CCCO)C1=O [Compound I-80, (R)—N-hydroxy-1′-(3-hydroxypropyl)-2′-oxo-3,4-dihydro-1H-spiro[naphthalene-2,3′-pyrrolidine]-7-carboxamide] | > 500 | ≤ 100 |
| O=C(NO)c1ccc2c(c1)C[C@]1(CC2)CCN(CC2CCC2)C1=O [Compound I-81, (R)-1′-(cyclobutylmethyl)-N-hydroxy-2′-oxo-3,4-dihydro-1H-spiro[naphthalene-2,3′-pyrrolidine]-7-carboxamide] | > 500 | ≤ 100 |
| CC(C)CCN1CC[C@]2(CCc3ccc(C(=O)NO)cc3C2)C1=O [Compound I-82, (R)—N-hydroxy-1′-isopentyl-2′-oxo-3,4-dihydro-1H-spiro[naphthalene-2,3′-pyrrolidine]-7-carboxamide] | 100 to 500 | ≤ 100 |
| CC#CCN1CC[C@]2(CCc3ccc(C(=O)NO)cc3C2)C1=O [Compound I-83, (R)-1′-(but-2-yn-1-yl)-N-hydroxy-2′-oxo-3,4-dihydro-1H-spiro[naphthalene-2,3′-pyrrolidine]-7-carboxamide] | > 500 | ≤ 100 |
| COCCN1CC[C@]2(CCc3ccc(C(=O)NO)cc3C2)C1=O [Compound I-84, (R)—N-hydroxy-1′-(2-methoxyethyl)-2′-oxo-3,4-dihydro-1H-spiro[naphthalene-2,3′-pyrrolidine]-7-carboxamide] | > 500 | ≤ 100 |
| O=C(NO)c1ccc2c(c1)C[C@]1(CC2)CCN(CC2CCOCC2)C1=O [Compound I-85, (R)—N-hydroxy-2′-oxo-1′-((tetrahydro-2H-pyran-4-yl)methyl)-3,4-dihydro-1H-spiro[naphthalene-2,3′-pyrrolidine]-7-carboxamide] | > 500 | ≤ 100 |
| O=C(NO)c1ccc2c(c1)C[C@]1(CC2)CCN(C/C=C/c2ccccc2)C1=O [Compound I-86, (R)-1′-cinnamyl-N-hydroxy-2′-oxo-3,4-dihydro-H-spiro[naphthalene-2,3′-pyrrolidine]-7-carboxamide] | ≤ 100 | ≤ 100 |
| Cc1ccccc1CN1CC[C@]2(CCc3ccc(C(=O)NO)cc3C2)C1=O [Compound I-87, (R)—N-hydroxy-1′-(2-methylbenzyl)-2′-oxo-3,4-dihydro-1H-spiro[naphthalene-2,3′-pyrrolidine]-7-carboxamide] | ≤ 100 | ≤ 100 |
| O=C(NO)c1ccc2c(c1)C[C@]1(CC2)CCN(Cc2ccccc2C(F)(F)F)C1=O [Compound I-88, (R)—N-hydroxy-2′-oxo-1′-(2-(trifluoromethyl)benzyl)-3,4-dihydro-1H-spiro[naphthalene-2,3′-pyrrolidine]-7-carboxamide] | ≤ 100 | ≤ 100 |
| O=C(NO)c1ccc2c(c1)C[C@]1(CC2)CCN(Cc2ccccc2Cl)C1=O [Compound I-89, (R)-1′-(2-chlorobenzyl)-N-hydroxy-2′-oxo-3,4-dihydro-1H-spiro[naphthalene-2,3′-pyrrolidine]-7-carboxamide] | ≤ 100 | ≤ 100 |
| O=C(NO)c1ccc2c(c1)C[C@]1(CC2)CCN(Cc2ccccc2OC(F)(F)F)C1=O [Compound I-90, (R)—N-hydroxy-2′-oxo-1′-(2-(trifluoromethoxy)benzyl)-3,4-dihydro-1H-spiro[naphthalene-2,3′-pyrrolidine]-7-carboxamide] | ≤ 100 | ≤ 100 |
| O=C(NO)c1ccc2c(c1)C[C@]1(CC2)CCN(Cc2ccc3nonc3c2)C1=O [Compound I-91, (R)-1′-(benzo[c][1,2,5]oxadiazol-5-ylmethyl)-N-hydroxy-2′-oxo-3,4-dihydro-1H-spiro[naphthalene-2,3′-pyrrolidine]-7-carboxamide] | ≤ 100 | ≤ 100 |
| O=C(NO)c1ccc2c(c1)C[C@]1(CC2)CCN(CC(=O)N2CCOCC2)C1=O [Compound I-92, (R)—N-hydroxy-1′-(2-morpholino-2-oxoethyl)-2′-oxo-3,4-dihydro-1H-spiro[naphthalene-2,3′-pyrrolidine]-7-carboxamide] | > 500 | ≤ 100 |
| COc1ccccc1CN1CC[C@]2(CCc3ccc(C(=O)NO)cc3C2)C1=O [Compound I-93, (R)—N-hydroxy-1′-(2-methoxybenzyl)-2′-oxo-3,4-dihydro-1H-spiro[naphthalene-2,3′-pyrrolidine]-7-carboxamide] | 100 to 500 | ≤ 100 |
| O=C(NO)c1ccc2c(c1)C[C@]1(CC2)CCN(Cc2cc(Cl)ccc2Cl)C1=O [Compound I-94, (R)-1′-(2,5-dichlorobenzyl)-N-hydroxy-2′-oxo-3,4-dihydro-1H-spiro[naphthalene-2,3′-pyrrolidine]-7-carboxamide] | ≤ 100 | ≤ 100 |
| O=C(NO)c1ccc2c(c1)C[C@]1(CC2)CCN(Cc2c(Cl)cccc2Cl)C1=O [Compound I-95, (R)-1′-(2,6-dichlorobenzyl)-N-hydroxy-2′-oxo-3,4-dihydro-1H-spiro[naphthalene-2,3′-pyrrolidine]-7-carboxamide] | > 500 | ≤ 100 |
| COc1cccc(CN2CC[C@]3(CCc4ccc(C(=O)NO)cc4C3)C2=O)c1 [Compound I-96, (R)—N-hydroxy-1′-(3-methoxybenzyl)-2′-oxo-3,4-dihydro-1H-spiro[naphthalene-2,3′-pyrrolidine]-7-carboxamide] | 100 to 500 | ≤ 100 |
| O=C(NO)c1ccc2c(c1)C[C@]1(CC2)CCN(Cc2cccnc2)C1=O [Compound I-97, (R)—N-hydroxy-2′-oxo-1′-(pyridin-3-ylmethyl)-3,4-dihydro-1H-spiro[naphthalene-2,3′-pyrrolidine]-7-carboxamide] | > 500 | ≤ 100 |
| O=C(NO)c1ccc2c(c1)C[C@]1(CC2)CCN(Cc2ccccn2)C1=O [Compound I-98, (R)—N-hydroxy-2′-oxo-1′-(pyridin-2-ylmethyl)-3,4-dihydro-1H-spiro[naphthalene-2,3′-pyrrolidine]-7-carboxamide] | > 500 | ≤ 100 |
| O=C(NO)c1ccc2c(c1)C[C@]1(CC2)CCN(Cc2cccc(F)c2)C1=O [Compound I-99, (R)-1′-(3-fluorobenzyl)-N-hydroxy-2′-oxo-3,4-dihydro-1H-spiro[naphthalene-2,3′-pyrrolidine]-7-carboxamide] | ≤ 100 | ≤ 100 |
| O=C(NO)c1ccc2c(c1)C[C@]1(CC2)CCN(Cc2ccc(OC(F)(F)F)cc2)C1=O [Compound I-100, (R)—N-hydroxy-2′-oxo-1′-(4-(trifluoromethoxy)benzyl)-3,4-dihydro-1H-spiro[naphthalene-2,3′-pyrrolidine]-7-carboxamide] | ≤ 100 | ≤ 100 |
